Reference: PubChem BioAssay AID652194 (Johns Hopkins Ion Channel Center, 2013)
The source made the active and inactive calls.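 The calls were made as follows: active = hERG flux cut by over 30% at some tested dose, with a fitted dose response curve; inactive = no hERG inhibition at any dose or no curve.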

Biological target: Voltage-gated inwardly rectifying potassium channel KCNH2 (Homo sapiens) (UniProt Q12809)
Assay: off-target hERG block by TASK1 inhibitor candidates – FluxOR thallium flux, concentration-response, CHO cells, selectivity assay for TASK1 inhibitor project, SAR follow-up (AID 652194)
Settings: hERG-expressing cells, FluxOR thallium flux fluorescence; at 30 µM (top of the series)

Voltage-gated inwardly rectifying potassium channel KCNH2 (Homo sapiens), sequence (Q12809 whole entry, looked up): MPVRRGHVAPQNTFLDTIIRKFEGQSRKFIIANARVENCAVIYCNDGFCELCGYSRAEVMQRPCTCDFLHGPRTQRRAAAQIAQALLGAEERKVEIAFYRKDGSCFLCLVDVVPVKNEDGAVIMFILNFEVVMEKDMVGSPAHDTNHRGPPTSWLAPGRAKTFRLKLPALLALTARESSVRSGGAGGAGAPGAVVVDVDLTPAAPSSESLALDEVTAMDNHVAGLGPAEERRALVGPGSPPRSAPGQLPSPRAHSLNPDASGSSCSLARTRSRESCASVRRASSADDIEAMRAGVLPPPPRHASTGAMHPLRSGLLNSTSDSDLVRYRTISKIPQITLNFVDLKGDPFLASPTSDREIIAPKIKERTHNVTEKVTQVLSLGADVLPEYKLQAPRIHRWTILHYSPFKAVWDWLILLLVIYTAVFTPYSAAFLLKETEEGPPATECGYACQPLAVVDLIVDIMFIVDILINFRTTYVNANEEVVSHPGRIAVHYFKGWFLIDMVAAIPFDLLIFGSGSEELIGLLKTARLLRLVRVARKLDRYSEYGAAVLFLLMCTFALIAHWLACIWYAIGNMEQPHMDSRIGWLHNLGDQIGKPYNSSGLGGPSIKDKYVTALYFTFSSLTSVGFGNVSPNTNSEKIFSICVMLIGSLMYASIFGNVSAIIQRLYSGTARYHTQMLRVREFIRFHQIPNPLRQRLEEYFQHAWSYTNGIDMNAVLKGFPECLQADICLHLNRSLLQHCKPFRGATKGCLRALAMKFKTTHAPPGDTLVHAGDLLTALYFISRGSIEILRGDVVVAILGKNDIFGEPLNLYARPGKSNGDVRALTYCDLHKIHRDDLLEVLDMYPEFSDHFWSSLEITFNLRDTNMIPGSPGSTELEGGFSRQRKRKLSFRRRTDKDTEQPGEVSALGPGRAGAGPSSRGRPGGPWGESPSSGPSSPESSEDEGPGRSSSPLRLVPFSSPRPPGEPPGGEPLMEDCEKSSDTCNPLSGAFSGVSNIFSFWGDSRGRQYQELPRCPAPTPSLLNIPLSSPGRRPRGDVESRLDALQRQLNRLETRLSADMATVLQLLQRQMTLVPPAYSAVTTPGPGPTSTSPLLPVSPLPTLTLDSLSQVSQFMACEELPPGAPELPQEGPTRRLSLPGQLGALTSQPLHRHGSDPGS

Compound	flux ratio, lower = inhibition
O=C(Nc1cccc(NC(=O)c2ccccc2)c1)c1ccccc1	inactive
Cc1cccc(C(=O)Nc2cccc(NC(=O)c3ccc(N(C)C)cc3)c2)c1	inactive
